According to ChEMBL document CHEMBL4354823, “Discovery and in Vivo Evaluation of Macrocyclic Mcl-1 Inhibitors Featuring an α-Hydroxy Phenylacetic Acid Pharmacophore or Bioisostere” (J Med Chem, 2019):

Experiments:
in vivo [1] = conditions: Sprague-Dawley, rat, po, 2 mg/kg
in vivo [2] = conditions: Sprague-Dawley, rat, iv, 0.5 mg/kg
in vivo [3] = conditions: Sprague-Dawley, rat, iv, 0.5 mg/kg; remark: listed apart in the source
in vitro [4] = conditions: human, liver microsomes
in vitro [5] = conditions: rat, liver microsomes
physchem [6] = conditions: simulated gastric fluid, pH 1.7
physchem [7] = conditions: simulated intestinal fluid, pH 6.6
[8] = rat, in vivo, iv, 0.5 mg/kg
physchem [9] = conditions: simulated gastric fluid, pH 1.7; remark: listed apart in the source
physchem [10] = conditions: simulated intestinal fluid, pH 6.6; remark: listed apart in the source
in vitro [11] = conditions: pig, LLC-PK1
[12] = Unbound clearance in CD-1 mouse at 1 mg/kg, iv; type: ADME, organism-based; conditions: in vivo
in vivo [13] = conditions: Beagle, dog, iv, 0.5 mg/kg
in vivo [14] = conditions: Beagle, dog, po, 2 mg/kg
[15] = mouse, in vivo, po, 60 mg/kg, 6 h
[16] = Clearance in CD-1 mouse at 1 mg/kg, iv; type: ADME, organism-based; conditions: in vivo
[17] = mouse, in vivo, po, 30 mg/kg, 6 h
[18] = rat, in vivo, iv, 0.5 mg/kg; remark: listed apart in the source
in vivo [19] = conditions: athymic nude, mouse, plasma, po, 30 mg/kg
[20] = Oral bioavailability in CD-1 mouse at 3 mg/kg; type: ADME, organism-based; conditions: in vivo
[21] = dog, in vivo, iv, 0.5 mg/kg
in vivo [22] = conditions: athymic nude, mouse, plasma, po, 60 mg/kg

| SMILES | bioavailability (in vivo [1]) | clearance (in vivo [2]) | half-life (in vivo [3]) | microsomal CLint (in vitro [4]) | microsomal CLint (in vitro [5]) | other results |
| --- | --- | --- | --- | --- | --- | --- |
| CN1CC/C=C/[C@H](OCCOCC(F)F)[C@@H]2CC[C@H]2CN2C[C@@]3(CCCc4cc(Cl)ccc43)COc3ccc(cc32)[C@@](O)(C(=O)NS(=O)(=O)N(C)C)CC1=O | 41% | 0.833 mL/min/kg | 6.5 h | – | – | – |
| CN1CC/C=C/[C@H](OCCN2CC(F)C2)[C@@H]2CC[C@H]2CN2C[C@@]3(CCCc4cc(Cl)ccc43)COc3ccc(cc32)[C@@](O)(C(=O)NS(=O)(=O)N(C)C)CC1=O | – | 11.7 mL/min/kg | 4.5 h | < 14 µL/min/mg | < 14 µL/min/mg | – |
| CN1CC/C=C/[C@H](OCCN2CCS(=O)(=O)CC2)[C@@H]2CC[C@H]2CN2C[C@@]3(CCCc4cc(Cl)ccc43)COc3ccc(cc32)[C@@](O)(C(=O)NS(=O)(=O)N(C)C)CC1=O | 6% | 60 mL/min/kg | 2.2 h | < 14 µL/min/mg | < 14 µL/min/mg | – |
| CN1CC/C=C/[C@H](OCCCN2CC(F)(F)C2)[C@@H]2CC[C@H]2CN2C[C@@]3(CCCc4cc(Cl)ccc43)COc3ccc(cc32)[C@@](O)(C(=O)NS(=O)(=O)N(C)C)CC1=O | 52% | 3.33 mL/min/kg | 5.5 h | – | – | – |
| COC(=O)[C@@]1(O)CC(=O)N(C)CC/C=C/[C@H](OC)[C@@H]2CC[C@H]2CN2C[C@@]3(CCCc4cc(Cl)ccc43)COc3ccc1cc32 | 2% | 43.3 mL/min/kg | 2.5 h | – | – | – |
| CN(C)C(=O)CO[C@H]1/C=C/CCN(C)C(=O)C[C@](O)(C(=O)NS(=O)(=O)N(C)C)c2ccc3c(c2)N(C[C@@H]2CC[C@H]21)C[C@@]1(CCCc2cc(Cl)ccc21)CO3 | – | 21.7 mL/min/kg | 3.1 h | 19 µL/min/mg | < 14 µL/min/mg | – |
| CN1CC/C=C/[C@H](OCCN2CCC(F)(F)CC2)[C@@H]2CC[C@H]2CN2C[C@@]3(CCCc4cc(Cl)ccc43)COc3ccc(cc32)[C@@](O)(C(=O)NS(=O)(=O)N(C)C)CC1=O | – | – | – | 43 µL/min/mg | < 14 µL/min/mg | – |
| CO[C@H]1/C=C/CCN(C)C(=O)C[C@](O)(C(=O)NS(C)(=O)=O)c2ccc3c(c2)N(C[C@@H]2CC[C@H]21)C[C@@]1(CCCc2cc(Cl)ccc21)CO3 | 8% | 26.7 mL/min/kg | 2.6 h | – | – | – |
| COC1CN(CCO[C@H]2/C=C/CCN(C)C(=O)C[C@](O)(C(=O)NS(=O)(=O)N(C)C)c3ccc4c(c3)N(C[C@@H]3CC[C@H]32)C[C@@]2(CCCc3cc(Cl)ccc32)CO4)C1 | 6% | 58.3 mL/min/kg | 6.3 h | – | – | – |
| CO[C@H]1/C=C/CCN(C)C(=O)C[C@](O)(C(=O)O)c2ccc3c(c2)N(C[C@@H]2CC[C@H]21)C[C@@]1(CCCc2cc(Cl)ccc21)CO3 | 0% | 23.3 to 23.8 mL/min/kg | 6.8 h | – | – | remaining at 1 h, 1 µM (physchem [6]): 26%; remaining at 1 h, 1 µM (physchem [7]): 100%; CL [8]: 31%; remaining at 0.5 h, 1 µM (physchem [9]): 49%; remaining at 0.5 h, 1 µM (physchem [10]): 100%; Papp (in vitro [11]): 4.5 ×10⁻⁶ cm/s |
| CN1CC/C=C/[C@H](OCCN2CCOCC2)[C@@H]2CC[C@H]2CN2C[C@@]3(CCCc4cc(Cl)ccc43)COc3ccc(cc32)[C@@](O)(C(=O)NS(=O)(=O)N(C)C)CC1=O | 9% | 15 mL/min/kg | 2.8 h | 21 µL/min/mg | < 14 µL/min/mg | – |
| CO[C@H]1/C=C/C[C@H](C)[C@@H](C)S(=O)(=O)NC(=O)c2ccc3c(c2)N(C[C@@H]2CC[C@H]21)C[C@@]1(CCCc2cc(Cl)ccc21)CO3 [TAPOTOCLAX] | 34% | 1 mL/min/kg | 18.2 h | – | – | CL free [12]: 67 mL/min/kg; clearance (in vivo [13]): 0.333 mL/min/kg; bioavailability (in vivo [14]): 27%; remaining at 1 h, 1 µM (physchem [6]): 84%; Cp(f) [15]: 0.529 µM; clearance [16]: 0.5 mL/min/kg; Cp(f) [17]: 0.368 µM; remaining at 1 h, 1 µM (physchem [7]): 81%; CL free [18]: 138 mL/min/kg; concentration at 6 h (in vivo [19]): 49.3 µM; remaining at 0.5 h, 1 µM (physchem [9]): 90%; remaining at 0.5 h, 1 µM (physchem [10]): 90%; bioavailability [20]: 31%; CL free [21]: 22.3 mL/min/kg; concentration at 6 h (in vivo [22]): 70.9 µM |
